Data set [1] can be described thus: Metal chelating activity of the compound assessed as formation of iron complex by fluorescence quenching assay. The class given is physicochemical.
Data set [2] is described as follows: Metal chelating activity of the compound assessed as formation of copper complex by fluorescence quenching assay. Type of data set: physicochemical.

Molecules are shown by their SMILES.

In the case of `COC(=O)[C@]1(C)CCC[C@]2(C)c3cc(Nc4ccc(OC)cc4)c([N+](=O)[O-])cc3C(=O)C[C@@H]12`, the Ka in data set [1] was 165 L/mol; in data set [2] it was 89.2 L/mol.
For `COC(=O)[C@]1(C)CCC[C@]2(C)c3cc(Nc4ccccc4)c([N+](=O)[O-])cc3C(=O)C[C@@H]12`, in that order: 106.9 L/mol and 60.7 L/mol.
For `CNc1cc2c(cc1[N+](=O)[O-])C(=O)C[C@H]1[C@](C)(C(=O)OC)CCC[C@]21C`, in that order: 186 L/mol and 107 L/mol.
As to `CCCNc1cc2c(cc1[N+](=O)[O-])C(=O)C[C@H]1[C@](C)(C(=O)OC)CCC[C@]21C`, the figures for the Ka in data set [1] and in data set [2] were 135.7 L/mol and 61.7 L/mol, respectively.
For the molecule `COC(=O)[C@]1(C)CCC[C@]2(C)c3cc(NC(C)(C)C)c([N+](=O)[O-])cc3C(=O)C[C@@H]12`, the Ka amounted to 103.6 L/mol in data set [1] and 175.6 L/mol in data set [2].
For the molecule `COC(=O)[C@]1(C)CCC[C@]2(C)c3cc(NCCN)c([N+](=O)[O-])cc3C(=O)C[C@@H]12`, the Ka in data set [1] was determined as 305.9 L/mol; in data set [2] it was 97.6 L/mol.
In the case of `CCNc1cc2c(cc1[N+](=O)[O-])C(=O)C[C@H]1[C@](C)(C(=O)OC)CCC[C@]21C`, the Ka in data set [1] stood at 138.3 L/mol; in data set [2], 81.3 L/mol.
As to `CCCCNc1cc2c(cc1[N+](=O)[O-])C(=O)C[C@H]1[C@](C)(C(=O)OC)CCC[C@]21C`, the Ka in data set [1] turned out to be 181.7 L/mol; in data set [2] it was 137.2 L/mol.
As for `COC(=O)[C@]1(C)CCC[C@]2(C)c3cc(NCCO)c([N+](=O)[O-])cc3C(=O)C[C@@H]12`, the Ka in data set [1] was determined as 108 L/mol; in data set [2] it was 70.3 L/mol.
For the molecule `COC(=O)[C@]1(C)CCC[C@]2(C)c3cc(Nc4ccc(C)cc4)c([N+](=O)[O-])cc3C(=O)C[C@@H]12`, the Ka is listed as 122.7 L/mol in data set [1] and 60.7 L/mol in data set [2].
Take `COC(=O)[C@]1(C)CCC[C@]2(C)c3cc(NC(C)C)c([N+](=O)[O-])cc3C(=O)C[C@@H]12`: the Ka is recorded as 168.3 L/mol in data set [1] and 102.9 L/mol in data set [2].

The values are drawn from ChEMBL document CHEMBL3046298, “Synthesis and metal ion binding activity of methyl 12-amino-13-nitro-7-oxo dehydrodeisopropylabietate derivatives” (Med Chem Res, 2012).
